Test results: publication PMC9225715, “Development of PD3 and PD3-B for PDEδ inhibition to modulate KRAS activity” (Journal of Enzyme Inhibition and Medicinal Chemistry, 2022)
Read-outs that look alike come from different tables or passages of the source.

Assays:
PANC-1 cells = assay: Immunofluorescence staining of RAS localisation; type: cell-based, human; settings: 18 h, anti-pan RAS antibody, PD3 10 µM, deltarasin 2, 5, 10 µM
Description: Finally, we investigated whether PD3 changes KRAS localisation by inhibiting the interaction of KRAS with PDEδ in human pancreatic cancer cells. PDEδ binds the farnesylated RAS proteins and stabilises them[19]. Therefore, PDEδ activity leads to the accumulation of RAS at the plasma membrane (PM); conversely, downmodulation of PDEδ enhances RAS diffusion in the cytoplasm. To confirm the effect of PD3 on the relocalization of RAS, we carried out immunofluorescence staining of PANC-1 cells with an anti-RAS antibody (Figure 6). […] Conversely, in the DMSO-treated control group, RAS was mainly localised in the PM of PANC-1 cells. […] It is supposed that PD3 can induce changes in RAS localisation from the plasma membrane by interrupting the protein–protein interaction of KRAS-PDEδ.
Figure 6. Immunofluorescence of PANC-1 cells with an anti-Pan-RAS antibody (red). DMSO was used as a negative control, and deltarasin was used as a positive control. Ex: 633 nm, Em: ≥638 nm. The scale bar represents 20 µm.
PANC-1 cells were seeded with cover slip in a 6-well cell culture plate (SPL life Science, Gyeonggi-do, Republic of Korea) and incubated for 24 h under 37 °C and 5% CO2 prior to the experiment. […] The fluorescence images were detected by confocal microscope (TCS-SP8 confocal laser scanning microscope, Leica, Germany). Fluorescence signal was obtained by excitation at 633 nm and emission at ≥638 nm.

PDEδ = molecular target: T1, PDEδ (Homo sapiens, UniProt O43924); assay: Fluorescence polarisation (FP)-based binding assay
T1 construct: made in house; host or cells: E. coli BL21(DE3)
T1 sequence (O43924 whole entry): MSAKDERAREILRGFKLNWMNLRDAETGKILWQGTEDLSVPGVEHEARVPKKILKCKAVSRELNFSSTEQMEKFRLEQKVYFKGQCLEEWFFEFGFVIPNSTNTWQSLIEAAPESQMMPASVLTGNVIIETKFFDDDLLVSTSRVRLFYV
Method: To evaluate the binding affinities of PDs to PDEδ, we also carried out a fluorescence polarisation (FP)-based binding assay after incubation of PDs with PDEδ. […] In the presence of 0.5 µM PD compounds, the polarisation value (mP value) increased following treatment with purified PDEδ in a dose-dependent manner until treatment with excess PDEδ induced saturation of binding. Among the tested compounds, 8 compounds were selected for further evaluation and SAR analysis. The binding curves for the selected 8 compounds are shown with their Kd values in Supplemental Figure S3.
Figure 3. Binding affinities of PDs measured by fluorescence polarisation. (A) Representative binding curve of PDs (PD3) titrated with PDEδ. The FP value was measured in PBS buffer (pH 7.2) containing 8 concentrations (0, 0.5, 1, 2, 4, 8, 16 and 32 μM) of PDEδ mixed with 0.5 μM PDs. Ex: 440 nm, Em: 526 nm; (B) Kd value and half-life of each compound; (C, D) Kinetic trace of PD3 and PD7 in the competition assay. PD3 was shown as a compound with the longest retention time (slow dissociation), whereas PD7 was shown as a compound with the shortest retention time (fast dissociation). The half-life was obtained by a competition binding assay using excess deltarasin. The optimal concentration of PDEδ for the competition assay was determined using the Kd value and PD concentration (0.5 μM) for making more than 68% of the binding complex. Ex: 430 nm, Em: 520 nm. TEXT PRINTED IN THE PICTURE: (A) PD3: Best-fit values Bmax: 261.7; Best-fit values Kd: 0.4991; Std. Error Bmax: 17.98; Std. […] Error Bmax 17.98 (last digit 8 or 6) and Std. Error Kd 0.1956 (5 and 6 not certain) / Panels C and D: k and half-life are printed without a label of their own; assigned to PD3 and PD7 from the panel legends (PDEδ+PD3+Del, PDEδ+PD7+Del)
PDEδ was diluted to make a series of two-fold dilutions with a starting concentration of 32 µM. The diluted solution was mixed with PBS buffer [137 mM NaCl, 2.7 mM KCl, 10 mM Na2HPO4, 2 mM KH2PO4 (pH 7.2)] and then the mixture was loaded on a 96 well black plate (SPL life Science, Gyeonggi-do, Republic of Korea). Compounds were transferred to the wells of assay plate and the final concentration of compounds was fixed to 0.5 µM. After the addition of the compound, the assay plates were incubated for 2 h at 4 °C. FP values were detected by SpectraMax M5 microplate reader (Molecular Devices, San Jose, CA) at the maximum absorption and emission wavelengths of PD compounds in assay buffer. Kd values were determined by previously reported method.

Kd (PDEδ; 0.5 µM PD titrated with PDEδ, PBS pH 7.2, mean ± SD of three independent experiments, read-out: Kd value): 491 ± 12 nM
Kd (PDEδ; representative binding curve, Figure 3(A) inset, read-out: Best-fit values Kd): 499 nM
Structure (SMILES): Cc1ccc(-c2nc3ccccc3c3cc4ccccn4c23)cc1 [PD3, 6-(p-tolyl)indolizino[3,2-c]quinoline]
RAS localisation at the plasma membrane (PM) (PANC-1 cells): red fluorescence was effectively reduced at the PM
